Measurements from PMC9750872, “Ras-mutant cancers are sensitive to small molecule inhibition of V-type ATPases in mice” (Nature biotechnology, 2022).

Test: Plasma concentration in mice
Format: in vivo
Details: female, athymic nude (NU/NU, Charles River strain # 088), mouse, intraperitoneal, 10 mg/kg, after 4 hours, read-out: maximum concentration (Cmax) in blood (or plasma)
Method: 5 × 10^6 A549 cells were subcutaneously injected into the lower left flank of 6–8-week old athymic nude female mice (Charles River strain # 088, homozygous NU/NU). To assess establishment of tumors, mice were examined 5 days post-inoculation and were randomly segregated into two treatment groups [vehicle control, 10 mg/kg 249C IP, n = 7 per group] and were treated twice daily with the drug in NPM or vehicle control (5% weight aqueous solution of carboxymethyl cellulose). Tumor volumes were calculated using the formula (L × W × H)/2 with recorded caliper measurements. Survival curves and statistical analyses were performed using Excel. Animals were maintained on a standard chow diet; 12:12 dark/light cycle and in group housing in hepa-filtered cages. All animal procedures were performed under IACUC approved protocols and guidelines. Animals from both groups were weighed every 3 days. Plasma concentration was measured from blood collected using standard and established protocols.

CN1CCOC(CNC(=O)C2(C)C(c3ccc(Cl)o3)C(c3ccc(F)cc3F)=NN2c2ccc(F)cc2F)C1 (stereo not shown) [Compound 249C]
Cmax: 20 µM
